Data on 28 compounds can be found in PMC8869358, “High-Throughput Chemical Screening and Structure-Based Models to Predict hERG Inhibition” (Biology, 2022).

Series [1] has as its target T1, hERG (Homo sapiens, UniProt Q12809). The experiment in a line: in vitro. The following applies: (-LOG10(IC50), µM).
Series [2] deals with T1, hERG. The experiment in a line: Tox21 qHTS FluxOR thallium flux assay in hERG-U2OS cells. Here is the method:
The hERG-U2OS cell line was purchased from Codex BioSolution, Inc. (Gaithersburg, MD, USA). All the cell culture reagents were obtained from Invitrogen (Life Technologies, Madison, WI, USA). The hERG-U2OS cells were cultured in DMEM with Glutamax containing 10% fetal bovine serum (FBS), 1% of Non-Essential AA (NEAA), 50 U/mL penicillin, 50 μg/mL streptomycin, and 1 µg/mL puromycin. The cells were maintained at 37 °C under a humidified atmosphere and 5% CO2.
A FluxORTM thallium flux assay was performed in hERG-U2OS cells with stable hERG expression, as previously described. In this assay, thallium ions are used as surrogates for K^+ ions to monitor the activity of the hERG K^+ channel. […] The hERG-U2OS cells suspended in culture medium were dispensed at 1000 cells/well/3μL into 1536-well, black wall/clear-bottom plates using a Multidrop Combi dispenser (Thermo Fisher, Waltham, MA, USA). After the assay plates were incubated at 37 °C overnight, 3 μL of Loading Buffer provided from FluxOR II Potassium Ion Channel Assay Kit (Life Technologies, Carlsbad, CA, USA) was added to each assay well. The assay plates were then incubated at room temperature in the dark for 1 h, followed by the addition of 23 nL of compound, dissolved in DMSO, DMSO only, or positive control, to the assay plate. Each compound was tested at 15 concentrations in three independent runs.
Multiple criteria were used to select each small molecule, including properties allowing for high-throughput screens (HTS) (molecular weight, volatility, solubility, logP), commercial availability, possible and definite environmental hazards, or exposure concerns, and cost. A diverse group of 88 compounds was selected to be used as an internal control and plated in duplicate on each library plate to perform reproducibility analysis as well as to determine positional plate effects. Each compound in the Tox21 10K compound library was subjected to analytical chemistry quality control (QC), which provides information on the purity and identity of each sample. […] The compounds were serially diluted in Dimethylsulfoxide (DMSO) to 15 concentrations in 1536-well plates, covering a concentration range of up to four orders of magnitude.
Many of these chemicals were sourced independently by NTP/EPA/NCATS from different vendors or the same vendor but different batches; these chemicals have been tested in replicates. Compound concentration-response data analysis was performed as previously described. […] The dataset was then corrected using the DMSO-only compound plates at the beginning and end of the compound plate stack by applying an in-house pattern correction algorithm. The half-maximum inhibition values (IC50) for each compound and maximum response (efficacy) values were obtained by fitting the concentration-response curves of each compound to a four-parameter Hill equation [24]. […] To identify chemicals with the potential to inhibit the hERG channel, we selected only antagonist chemicals with curve rank −5 to −9.
On the technique in general: Quantitative high-throughput screening tests each substance at several concentrations.

Series [3] deals with T1, hERG. The experiment in a line: cell-based. The note with it: (-LOG10(IC50), µM).
Setting [4] is: hERG-U2OS cells, thallium flux, qHTS, result in words.

Where two headings read alike, the source gives them in different places.

T1 sequence (Q12809 whole entry): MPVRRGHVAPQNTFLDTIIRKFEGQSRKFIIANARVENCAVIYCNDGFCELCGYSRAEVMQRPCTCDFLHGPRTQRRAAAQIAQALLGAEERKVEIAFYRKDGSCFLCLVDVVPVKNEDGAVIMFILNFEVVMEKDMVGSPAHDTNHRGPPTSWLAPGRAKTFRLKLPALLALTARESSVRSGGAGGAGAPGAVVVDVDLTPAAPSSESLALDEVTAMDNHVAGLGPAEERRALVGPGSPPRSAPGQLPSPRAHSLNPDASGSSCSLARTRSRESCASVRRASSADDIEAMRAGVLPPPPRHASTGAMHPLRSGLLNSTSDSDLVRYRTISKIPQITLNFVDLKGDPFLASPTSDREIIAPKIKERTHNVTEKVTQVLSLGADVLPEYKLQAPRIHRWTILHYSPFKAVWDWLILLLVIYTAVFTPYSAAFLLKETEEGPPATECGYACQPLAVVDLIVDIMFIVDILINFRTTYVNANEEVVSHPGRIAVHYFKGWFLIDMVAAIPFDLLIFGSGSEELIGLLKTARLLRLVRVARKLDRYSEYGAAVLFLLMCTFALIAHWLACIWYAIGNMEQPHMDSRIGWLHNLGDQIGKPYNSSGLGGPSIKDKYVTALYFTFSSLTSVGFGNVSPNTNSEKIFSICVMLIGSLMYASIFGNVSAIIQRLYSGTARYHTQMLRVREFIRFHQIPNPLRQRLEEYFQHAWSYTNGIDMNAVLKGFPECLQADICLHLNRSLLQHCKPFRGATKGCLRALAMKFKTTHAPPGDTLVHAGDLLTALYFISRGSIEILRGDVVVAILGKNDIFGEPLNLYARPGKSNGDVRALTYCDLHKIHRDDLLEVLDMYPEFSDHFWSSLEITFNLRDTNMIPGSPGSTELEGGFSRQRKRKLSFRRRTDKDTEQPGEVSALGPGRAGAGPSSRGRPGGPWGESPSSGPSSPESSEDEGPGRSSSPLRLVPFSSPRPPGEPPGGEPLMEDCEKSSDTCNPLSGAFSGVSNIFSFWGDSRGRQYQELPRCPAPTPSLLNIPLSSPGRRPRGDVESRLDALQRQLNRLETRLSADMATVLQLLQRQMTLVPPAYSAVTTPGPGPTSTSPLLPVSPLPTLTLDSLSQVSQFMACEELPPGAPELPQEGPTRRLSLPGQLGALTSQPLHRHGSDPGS

`CCCCCCCCCCCC[N+](C)(C)Cc1ccccc1` [Benzyldimethyldodecylammonium chloride] showed an IC50 against hERG [1] (herg fluxor ii thallium influx) of 1.21 µM.

Turning to `CCCCCCCCCCCC[N+](C)(C)Cc1ccccc1` [Benzyldodecyldimethylammonium bromide], the IC50 against hERG [1] (fluxor ii thallium influx herg) is 1.25 µM.

`O=C(CCCN1CCC(O)(c2ccc(Br)cc2)CC1)c1ccc(F)cc1` [Bromperidol]: the “activity outcome for hERG inhibition in the assay” value at hERG [2] (setting [4]) is listed as “most active”. On hERG [3], this compound gave an IC50 of 0.249 µM.

As to `C/C=C/C(=O)Oc1ccccc1[N+](=O)[O-]` [Dinocap], the “activity outcome for hERG inhibition in the assay” value at hERG [2] (setting [4]) is on record as “inhibitory activity”. The compound also showed a concentration for half-maximal inhibition (IC50) at hERG [3] of 20.3 µM.

Regarding `O=S1OCC2C(CO1)C1(Cl)C(Cl)=C(Cl)C2(Cl)C1(Cl)Cl` (centres unmarked) [Endosulfan], on hERG [2], the “activity outcome for hERG inhibition in the assay” value is given as “inhibitory activity”. Inhibition against hERG [3] was half-maximal at 32.1 µM (IC50).

Regarding `CC(CCc1ccccc1)NCC(O)c1ccc(O)c(C(N)=O)c1` (centres unmarked) [Labetalol], the “activity outcome for hERG inhibition in the assay” value on hERG [2] is “active”. Further, it took 13.3 µM to reach half-maximal inhibition against hERG [3] (IC50).

Turning to `CS(=O)(=O)CCNCc1ccc(-c2ccc3ncnc(Nc4ccc(OCc5cccc(F)c5)c(Cl)c4)c3c2)o1` [Lapatinib], the “activity outcome for hERG inhibition in the assay” value on hERG [2] (setting [4]) is given as “showing activity against hERG”.

`CC(=O)[O-].CC(=O)[O-].[Hg+2]` [Mercury(II) acetate] showed an IC50 at hERG [1] (herg fluxor ii thallium influx) of 6.16 µM.

As to `CCCCCCCC[N+](C)(CCCCCCCC)CCCCCCCC.O=S(=O)([O-])C(F)(F)F` [Methyltrioctylammonium trifluoromethanesulfonate], on hERG [2], the “Aff (affinity classification)” value came out at 1 and the “activity outcome for hERG inhibition in the assay” value was “most active”. Also, half-maximal inhibition at hERG [3] (IC50) required 0.109 µM.

Turning to `O=c1[nH]c2ccccc2n1C1CCN(CCCC(c2ccc(F)cc2)c2ccc(F)cc2)CC1` [Pimozide], at hERG [2], the “activity outcome for hERG inhibition in the assay” value was “most active”.

`CC(C)(C)c1ccc(CSc2cnn(C(C)(C)C)c(=O)c2Cl)cc1` [Pyridaben]: on hERG [2] (setting [4]), the “activity outcome for hERG inhibition in the assay” value is given as “inhibitory activity”. For the same compound, 18.8 µM corresponded to half-maximal inhibition on hERG [3] (IC50).

Consider `CCNc1cc2[o+]c3cc(NCC)c(C)cc3c(-c3ccccc3C(=O)OCC)c2cc1C` [Rhodamine 6G], for which the half-inhibitory concentration (IC50) against hERG [1] (herg fluxor ii thallium influx) is 2.45 µM.

In the case of `Cc1nc2sccn2c(=O)c1CCN1CCC(=C(c2ccc(F)cc2)c2ccc(F)cc2)CC1` [Ritanserin], the 50% inhibitory concentration (IC50) on hERG [2] (IC50, hERG-U2OS cells, thallium flux, qHTS, 15 concentrations, three runs) is 0.18 µM. On hERG [2] (setting [4]), the “activity outcome for hERG inhibition in the assay” value is listed as “most active”.

With `CC(C)NCC(O)c1ccc(NS(C)(=O)=O)cc1` (centres unmarked) [Sotalol], at hERG [2] (setting [4]), the “activity outcome for hERG inhibition in the assay” value is given as “active”.

Compound `CC1(C)C2(Cl)C(Cl)C(Cl)C(Cl)(C(Cl)Cl)C1(Cl)C2Cl` (centres unmarked) [Strobane] showed a concentration for half-maximal inhibition (IC50) at hERG [1] (herg fluxor ii thallium influx) of 41.2 µM.

In turn, `ClC1=C(Cl)C2(Cl)C3C(Cl)C(Cl)CC3C1(Cl)C2(Cl)Cl` (centres unmarked) [Technical chlordane] had an IC50 against hERG [1] (herg fluxor ii thallium influx) of 28.5 µM.

For the compound `C=C1C(CCl)(CCl)C2(Cl)C(Cl)C(Cl)C1(Cl)C2(Cl)Cl` (centres unmarked) [Toxaphene], at hERG [1] (fluxor ii thallium influx herg), the IC50 is 35.6 µM.

Regarding `O=C(CCCN1CCC(O)(c2cccc(C(F)(F)F)c2)CC1)c1ccc(F)cc1` [Trifluperidol], the “activity outcome for hERG inhibition in the assay” value on hERG [2] (setting [4]) is recorded as “most active”.

`c1cc[c]([Sb]([c]2ccccc2)[c]2ccccc2)cc1` [Triphenylstibine] gave an IC50 against hERG [1] (herg fluxor ii thallium influx) of 17.4 µM.

For the compound `C=CCC1=C(C)C(OC(=O)C2C(C=C(C)C)C2(C)C)CC1=O` (centres unmarked) [allethrin], the “activity outcome for hERG inhibition in the assay” value at hERG [2] was “inhibitory activity”. The same compound had a 50% inhibitory concentration (IC50) at hERG [3] of 32.3 µM.

`CCNc1ccc(C(=C2C=CC(=[N+](CC)CC)C=C2)c2ccc(N(CC)CC)cc2)c2ccccc12.[Cl-]` [basic blue 7]: the “activity outcome for hERG inhibition in the assay” value on hERG [2] (setting [4]) is reported as “most active”. On hERG [3], the 50% inhibitory concentration (IC50) is 0.526 µM.

Turning to `CC1(C)CNC(=NN=C(/C=C/c2ccc(C(F)(F)F)cc2)/C=C/c2ccc(C(F)(F)F)cc2)NC1` [hydramethylnon], the “activity outcome for hERG inhibition in the assay” value at hERG [2] (setting [4]) is “most active”. At hERG [3], this compound showed a half-maximal inhibitory concentration (IC50) of 0.436 µM.

With `Cl[C@H]1[C@H](Cl)[C@@H](Cl)[C@@H](Cl)[C@H](Cl)[C@H]1Cl` [lindane], the “activity outcome for hERG inhibition in the assay” value at hERG [2] is reported as “inhibitory activity”. At hERG [3], this compound had an IC50 of 45 µM.

Consider `Clc1ccc(C(c2ccccc2Cl)C(Cl)(Cl)Cl)cc1` (centres unmarked) [o p’-DDT], for which the “activity outcome for hERG inhibition in the assay” value at hERG [2] (setting [4]) is reported as “inhibitory activity”.

Turning to `C#CCC1=C(C)C(OC(=O)C2C(C=C(C)C)C2(C)C)CC1=O` (centres unmarked) [prallethrin], the “activity outcome for hERG inhibition in the assay” value on hERG [2] (setting [4]) is “inhibitory activity”. In addition, the half-maximal inhibitory concentration (IC50) against hERG [3] is 46.8 µM.

Regarding `CCCCCCCC[N+](CCCCCCCC)(CCCCCCCC)CCCCCCCC.[Br-]` [tetra-N-octylammonium bromide], the “activity outcome for hERG inhibition in the assay” value on hERG [2] was “most active”. The compound also showed a 50% inhibitory concentration (IC50) at hERG [3] of 0.745 µM.

As to `CCCCCCCC[P+](CCCCCCCC)(CCCCCCCC)CCCCCCCC.[Br-]` [tetraoctylphosphonium bromide], the “activity outcome for hERG inhibition in the assay” value at hERG [2] (setting [4]) is listed as “most active”. This compound gave an IC50 against hERG [3] of 0.402 µM.

As to `CCCCCCCCCCCCCC[P+](CCCC)(CCCC)CCCC.[Cl-]` [tributyltetradecylphosphonium chloride], the “activity outcome for hERG inhibition in the assay” value at hERG [2] (setting [4]) is reported as “most active”. This compound had a concentration for half-maximal inhibition (IC50) against hERG [3] of 0.334 µM.

Usually IC50 stands for the concentration that inhibits the measured activity by half. A higher IC50 goes with a need for much substance.
